Among the data in patent publication US9409905B2, “Antibacterial compounds and methods for use” (PTC THERAPEUTICS, INC., priority 2011, dated 2016) are MIC values, retold here.

Experiment [1] deals with Pseudomonas aeruginosa (P. aeruginosa) 27853. Kind of experiment: Antibacterial activity, MIC (Table 5). Format: cell-based. Conditions: P. aeruginosa 27853, read-out: MIC, 27853. The essentials:
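Compounds are serially diluted in broth and inoculated with the organism. Growth is then inspected macroscopically, and the lowest concentration showing none is taken as the MIC (μg/mL).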

For experiment [2], the system named is Neisseria meningitidis (N. meningitidis) 13090. Put plainly: Antibacterial activity, MIC (Table 8). In kind it is cell-based. The method in brief:
(§1)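 Broth microdilution MIC, read as the lowest drug concentration preventing macroscopically visible growth under test conditions and reported in μg/mL.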

Experiment [3] relates to Moraxella catarrhalis (M. catarrhalis) 25238. Kind of experiment: Antibacterial activity, MIC (Table 7). In kind it is cell-based. An excerpt:
The antibacterial activity from a microbroth dilution method may be presented as the minimum inhibitory concentration (MIC in μg/mL). The MIC value is the lowest concentration of drug which prevents macroscopically visible growth under test conditions.
Antibacterial activity of test compounds against the Gram-negative bacteria Haemophilus influenzae (H. influenzae) 49247 is shown in Table 6, Moraxella catarrhalis (M. catarrhalis) 25238 is shown in Table 7 and Neisseria meningitidis (N. meningitidis) 13090 is shown in Table 8.

The subject of a further experiment is K. pneumoniae MXX1232. Kind of experiment: Antibacterial activity, MIC, resistant strain (Table 4). Format: cell-based. Conditions: Klebsiella pneumoniae, MXX1232; resistant K. pneumoniae MMX1232, multi-drug resistant clinical isolate; read-out: MIC, MMX1232. The method in brief:
(§2)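 Values are minimum inhibitory concentrations in μg/mL from broth microdilution, meaning no macroscopically visible growth at that concentration. Resistant MXX isolates are multi-drug resistant clinical strains.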

The next experiment has as its system A. baumannii MXX2240. The experiment is described as above. Conditions: Acinetobacter baumannii, MXX2240; resistant A. baumannii MMX2240, multi-drug resistant clinical isolate; read-out: MIC, MMX2240. In kind it is cell-based. The essentials:
as §2

The test system of experiment [4] is Haemophilus influenzae (H. influenzae) 49247. Kind of experiment: Antibacterial activity, MIC (Table 6). In kind it is cell-based. The essentials:
as §1

The next experiment concerns E. coli ELZ4251. Kind of experiment: Antibacterial activity, MIC, multi-drug resistant clinical isolate (Table 3). In kind it is cell-based. Conditions: Escherichia coli. The method in brief:
(§3)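 Microbroth dilution. Endpoint: absence of macroscopically visible growth. Value = MIC, μg/mL.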

In the next experiment the test system is E. coli ELZ4000. Described as above. In kind it is cell-based. Conditions: Escherichia coli, ELZ4000, read-out: MIC ELZ4000. The essentials: as §3
The subject of experiment [5] is Acinetobacter baumannii (A. baumannii) BAA747. Put plainly: Antibacterial activity, MIC (Table 4). Format: cell-based. Conditions: A. baumannii BAA747, read-out: MIC, BAA747. The essentials:
as §2

Experiment [6] deals with Klebsiella pneumoniae (K. pneumoniae) 35657. Put plainly: Antibacterial activity, MIC (Table 4). In kind it is cell-based. Conditions: K. pneumoniae 35657, read-out: MIC, 35657. The essentials:
as §2

In experiment [7] the test system is Staphylococcus aureus (S. aureus) 29213. Kind of experiment: Antibacterial activity, microbroth dilution MIC (Table 1). Format: cell-based. Conditions: microbroth dilution, Gram-positive S. aureus 29213, read-out: MIC, 29213. The method in brief: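 Lowest concentration stopping macroscopically visible growth under test conditions, by broth microdilution, defines the MIC (μg/mL).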

Experiment [8] has as its system Escherichia coli (E. coli) BAS849. The description is as above. Format: cell-based. Conditions: microbroth dilution, super sensitive Gram-negative E. coli BAS849, read-out: MIC, BAS849. The essentials: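 In a microbroth dilution test, the minimum inhibitory concentration was defined as the lowest compound level preventing growth seen by eye, and was given in μg/mL.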
A general note: Dilution methods test growth across graded concentrations, often in twofold steps.

In a further experiment the test system is E. coli LZ3111. Kind of experiment: Antibacterial activity, MIC, quinolone resistant strain (Table 2). In kind it is cell-based. Conditions: Escherichia coli, LZ3111, read-out: MIC LZ3111. The essentials: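 Strain carries mutations conferring high-level quinolone resistance; tested by microbroth dilution, MIC recorded in μg/mL as lowest concentration preventing visible growth.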

The next experiment deals with E. coli 25922. Put plainly: Antibacterial activity, microbroth dilution MIC (Table 1). Format: cell-based, Escherichia coli. Conditions: Escherichia coli; microbroth dilution; control Gram-negative E. coli 25922 strain; read-out: MIC, 25922. The essentials: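 Values are MICs (μg/mL): the smallest drug amount at which macroscopically visible bacterial growth is absent under assay conditions, from a microdilution method in broth.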

SMILES strings stand for the structures. Converted amounts (≈) assume the structure as drawn. Bounds are passed on as bounds.

As for `CCc1c(-c2ccc3c(c2)cc(CN2CCOCC2)n3C)[nH]c(=O)c(C(=O)O)c1O` [Cpd 168, 5-ethyl-4-hydroxy-6-(1-methyl-2-(morpholinomethyl)-1H-indol-5-yl)-2-oxo-1,2-dihydropyridine-3-carboxylic acid], the MIC is 12.5 to 150 µg/mL (≈ 30.4 to 365 µM) in experiment [1]; under 1 µg/mL in experiment [2]; under 1 µg/mL in experiment [3]; 12.5 to 150 µg/mL (≈ 30.4 to 365 µM) with K. pneumoniae MXX1232; 3.5 to 12.5 µg/mL (≈ 8.51 to 30.4 µM) with A. baumannii MXX2240; under 1 µg/mL in experiment [4]. In addition, the MIC against E. coli ELZ4251 is 12.5 to 150 µg/mL (≈ 30.4 to 365 µM); with E. coli ELZ4000 it was 12.5 to 150 µg/mL (≈ 30.4 to 365 µM); in experiment [5], 1 to 3.5 µg/mL (≈ 2.43 to 8.51 µM); in experiment [6] it was 1 to 3.5 µg/mL (≈ 2.43 to 8.51 µM); in experiment [7], 1 to 3.5 µg/mL (≈ 2.43 to 8.51 µM); in experiment [8], under 1 µg/mL. Besides, the MIC with E. coli LZ3111 fell in the range of 3.5 to 12.5 µg/mL (≈ 8.51 to 30.4 µM); in the experiment on E. coli 25922 it was 1 to 3.5 µg/mL (≈ 2.43 to 8.51 µM).
Take `CCc1c(-c2ccc3c(c2)cc(CN2CCN(C)CC2)n3C)[nH]c(=O)c(C(=O)O)c1O` [Cpd 169, 5-ethyl-4-hydroxy-6-(1-methyl-2-((4-methylpiperazin-1-yl)methyl)-1H-indol-5-yl)-2-oxo-1,2-dihydropyridine-3-carboxylic acid]: the MIC was 12.5 to 150 µg/mL (≈ 29.4 to 353 µM) in experiment [1]; under 1 µg/mL in [2]; under 1 µg/mL in experiment [3]; 12.5 to 150 µg/mL (≈ 29.4 to 353 µM) in the experiment on K. pneumoniae MXX1232; 12.5 to 150 µg/mL (≈ 29.4 to 353 µM) in the experiment on A. baumannii MXX2240; 1 to 3.5 µg/mL (≈ 2.36 to 8.24 µM) in experiment [4]. Also, the MIC was 12.5 to 150 µg/mL (≈ 29.4 to 353 µM) against E. coli ELZ4251; 12.5 to 150 µg/mL (≈ 29.4 to 353 µM) in the experiment with E. coli ELZ4000; 1 to 3.5 µg/mL (≈ 2.36 to 8.24 µM) in experiment [5]; 1 to 3.5 µg/mL (≈ 2.36 to 8.24 µM) in [6]; 3.5 to 12.5 µg/mL (≈ 8.24 to 29.4 µM) in experiment [7]; under 1 µg/mL in experiment [8]. The MIC with E. coli LZ3111 is 3.5 to 12.5 µg/mL (≈ 8.24 to 29.4 µM); in the experiment with E. coli 25922, 1 to 3.5 µg/mL (≈ 2.36 to 8.24 µM).
Regarding `CCc1c(-c2ccc3c(c2)cc(CN2CCNCC2)n3C)[nH]c(=O)c(C(=O)O)c1O` [Cpd 171, 5-ethyl-4-hydroxy-6-(1-methyl-2-(piperazin-1-ylmethyl)-1H-indol-5-yl)-2-oxo-1,2-dihydropyridine-3-carboxylic acid], the MIC in [1] is 12.5 to 150 µg/mL (≈ 30.5 to 365 µM); in [2], 1 to 3.5 µg/mL (≈ 2.44 to 8.53 µM); in experiment [3] it was 3.5 to 12.5 µg/mL (≈ 8.53 to 30.5 µM); in the experiment with K. pneumoniae MXX1232, 12.5 to 150 µg/mL (≈ 30.5 to 365 µM); in the experiment with A. baumannii MXX2240, 12.5 to 150 µg/mL (≈ 30.5 to 365 µM); in experiment [4], 1 to 3.5 µg/mL (≈ 2.44 to 8.53 µM). Moreover, the MIC with E. coli ELZ4251 is 12.5 to 150 µg/mL (≈ 30.5 to 365 µM); with E. coli ELZ4000, 12.5 to 150 µg/mL (≈ 30.5 to 365 µM); in experiment [5], 12.5 to 150 µg/mL (≈ 30.5 to 365 µM); in experiment [6], 1 to 3.5 µg/mL (≈ 2.44 to 8.53 µM); in experiment [7] it was 12.5 to 150 µg/mL (≈ 30.5 to 365 µM); in [8] it was under 1 µg/mL. Also, the MIC in the experiment on E. coli LZ3111 and in the experiment with E. coli 25922 was 1 to 3.5 µg/mL (≈ 2.44 to 8.53 µM) throughout.
Consider `CCc1c(-c2ccc3c(c2)cc(CN2CCCC2C)n3C)[nH]c(=O)c(C(=O)O)c1O` (stereo not shown) [Cpd 173, 5-ethyl-4-hydroxy-6-(1-methyl-2-((2-methylpyrrolidin-1-yl)methyl)-1H-indol-5-yl)-2-oxo-1,2-dihydropyridine-3-carboxylic acid], for which the MIC in experiment [1] is 12.5 to 150 µg/mL (≈ 30.5 to 366 µM); in [2] it was under 1 µg/mL; in experiment [3], under 1 µg/mL; in the experiment on K. pneumoniae MXX1232 it was 12.5 to 150 µg/mL (≈ 30.5 to 366 µM); with A. baumannii MXX2240, 12.5 to 150 µg/mL (≈ 30.5 to 366 µM); in experiment [4], under 1 µg/mL. The MIC in the experiment with E. coli ELZ4251 was 3.5 to 12.5 µg/mL (≈ 8.55 to 30.5 µM); in the experiment on E. coli ELZ4000 it was 12.5 to 150 µg/mL (≈ 30.5 to 366 µM); in experiment [5], 1 to 3.5 µg/mL (≈ 2.44 to 8.55 µM); in [6], 1 to 3.5 µg/mL (≈ 2.44 to 8.55 µM); in experiment [7] it was 3.5 to 12.5 µg/mL (≈ 8.55 to 30.5 µM); in experiment [8] it was under 1 µg/mL. For the same compound, the MIC with E. coli LZ3111 is 3.5 to 12.5 µg/mL (≈ 8.55 to 30.5 µM); in the experiment with E. coli 25922 it was under 1 µg/mL.
On to `CCc1c(-c2ccc3c(c2)cc(CN2CC[C@H](N)C2)n3C)[nH]c(=O)c(C(=O)O)c1O` [Cpd 180, (S)-6-(2-((3-aminopyrrolidin-1-yl)methyl)-1-methyl-1H-indol-5-yl)-5-ethyl-4-hydroxy-2-oxo-1,2-dihydropyridine-3-carboxylic acid], for which the MIC was 12.5 to 150 µg/mL (≈ 30.5 to 365 µM) in [1]; 1 to 3.5 µg/mL (≈ 2.44 to 8.53 µM) in experiment [2]; 3.5 to 12.5 µg/mL (≈ 8.53 to 30.5 µM) in [3]; 12.5 to 150 µg/mL (≈ 30.5 to 365 µM) with K. pneumoniae MXX1232; 12.5 to 150 µg/mL (≈ 30.5 to 365 µM) with A. baumannii MXX2240; 1 to 3.5 µg/mL (≈ 2.44 to 8.53 µM) in experiment [4]. Besides, the MIC was 3.5 to 12.5 µg/mL (≈ 8.53 to 30.5 µM) in the experiment on E. coli ELZ4251; 12.5 to 150 µg/mL (≈ 30.5 to 365 µM) with E. coli ELZ4000; 12.5 to 150 µg/mL (≈ 30.5 to 365 µM) in experiment [5]; 3.5 to 12.5 µg/mL (≈ 8.53 to 30.5 µM) in experiment [6]; 12.5 to 150 µg/mL (≈ 30.5 to 365 µM) in [7]; under 1 µg/mL in [8]. Besides, the MIC with E. coli LZ3111 and with E. coli 25922 was 1 to 3.5 µg/mL (≈ 2.44 to 8.53 µM) in each case.
